Data reported in US20080167532A1, “ASSESSING CANCER TREATMENT RESPONSIVENESS” (Mayo Foundation for Medical Education and Research, priority 2006, published 2008).

Experiments:
DRO cells = test: Clonogenic growth of DRO cells in soft agar; format: cell-based, human; details: two weeks
Method: The ability of RS5444 to inhibit clonogenic growth of DRO cells in soft agar was also examined (FIG. 3C). DRO cells were plated in triplicate on soft agar for colony formation and treated with the indicated doses of RS5444. Colonies were stained and counted after two weeks.

[1] = tested on: ATC tumors implanted into athymic nude mice; test: Affymetrix Plus 2.0 array, nucleic acid expression in DRO tumors implanted into athymic nude mice; format: in vivo
Method: Affymetrix Plus 2.0 arrays were used to identify nucleic acids altered between control vehicle-treated and RS5444-treated ATC cells from cell culture and tumors implanted ectopically into athymic nude mice. Cells in culture were treated with a single dose of 10 nM RS5444 for either 2, 6, or 24 hours. Animals were treated with 0.025% RS5444 after implantation of 1×10^6 DRO cells. Animals were fed a diet including 0.025% RS5444 for 35 days, and tumor volume was measured weekly. Tumor tissues were removed, RNA was isolated, and nucleic acid expression was analyzed. Examples of some nucleic acids, the expression of which was altered in both the animal derived tumors and cells in culture, are presented in Table 1. Some of the nucleic acids regulated by PPARγ in ATC cells (e.g., BMP2, MMP14, ANGPTL4, and ITGA5) are secreted polypeptides (Table 1).

PPARγ = molecular target: T1, PPARγ (Homo sapiens, UniProt P37231); test: PPAR isoform luciferase reporter in transfected RIE cells; format: cell-based; parameters: expressed in transfected cells; host or cells: RIE (rat small intestinal cell line); details: RIE cells transfected with PPARγ and PPRE3-tk-luc, 10 nM
T1 sequence (P37231 1-505): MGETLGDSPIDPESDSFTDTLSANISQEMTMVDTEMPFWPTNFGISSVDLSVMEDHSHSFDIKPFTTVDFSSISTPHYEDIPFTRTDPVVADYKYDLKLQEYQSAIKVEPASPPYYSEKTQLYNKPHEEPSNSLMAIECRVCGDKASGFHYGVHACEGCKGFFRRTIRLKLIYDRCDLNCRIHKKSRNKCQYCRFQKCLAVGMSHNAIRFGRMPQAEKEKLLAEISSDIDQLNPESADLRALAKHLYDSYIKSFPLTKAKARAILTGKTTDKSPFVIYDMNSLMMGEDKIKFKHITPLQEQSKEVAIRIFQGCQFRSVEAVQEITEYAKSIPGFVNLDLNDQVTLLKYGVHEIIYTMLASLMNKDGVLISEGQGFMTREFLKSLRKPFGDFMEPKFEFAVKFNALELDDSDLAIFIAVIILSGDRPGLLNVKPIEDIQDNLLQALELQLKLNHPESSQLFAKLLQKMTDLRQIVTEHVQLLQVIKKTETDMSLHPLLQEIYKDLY
Text: Increased luciferase activity was only observed in the presence of PPARγ and PPRE3-tk-luc.

[2] = tested on: DRO and ARO tumor tissues; test: Western blot of DRO and ARO tumor tissues from athymic nude mice; format: in vivo
Method: RhoB and p21^WAF1/CIP1 polypeptide expression also was examined in DRO and ARO tumor tissues removed from athymic nude mice following 35 days of treatment with vehicle control (−) or 0.025% RS5444 in the diet. Beta-actin was used as a normalization control to ensure even loading of total polypeptide in all lanes.
Suspensions of 1×10^6/0.1 mL DRO or ARO cells in RPMI medium were injected subcutaneously in one flank of 3 to 4 week old athymic female nude mice. Mice were changed to specialized diets 1 week after tumor implantation and randomly assigned to diets consisting of either 0.025% RS5444 or sham control (Research Diets). Mice weighed between 20-25 grams and consumed on average 4 grams of food per day (1 mg/day of RS5444). Tumors were measured every 3 to 4 days for 35 days with calipers and tumor volumes were calculated by the formula: 0.5236(a×b×c), where a is the shortest diameter, b is the diameter perpendicular to a, and c is the diameter height.
Cells were collected and lysed in RIPA buffer containing 50 mM Tris, 5 mM EDTA, 150 mM NaCl, 0.1% SDS, 0.5% Deoxycholate, 1% NP40, and protease inhibitor cocktail (Roche) followed by centrifugation. Excised tumor tissues were lysed in 50 mM Tris pH 8.0+1% SDS. Collected supernatants were, analyzed for protein concentration using Pierce's BCA assay, with 25 μg protein loaded per gel lane (Invitrogen) with later transfer to Immobilon-P membranes. The membranes were hybridized with antibodies (Santa Cruz, Cell Signaling, Sigma-Aldrich, St. Louis Mo.) as indicated overnight at 4° C. followed by treatment with species-specific horseradish peroxidase IgG (Jackson labs) for 45 minutes at room temperature. Detection was performed using Supersignal West Pico chemoluminescence kit (Pierce). Quantification of bands was performed in triplicate using Image Quant 5.2 (Molecular Dynamics, Sunnyvale Calif.).

[3] = DRO and ARO tumors, 0.025% in diet for 35 days

Cc1cc(Oc2ccc3nc(COc4ccc(CC5SC(=O)NC5=O)cc4)n(C)c3c2)cc(C)c1N (centres unmarked) [RS5444]
inhibition of colony formation in soft agar (DRO cells; 1 nM): 63% | inhibition of colony formation in soft agar (DRO cells; 10 nM): 98% | inhibition of colony formation in soft agar (DRO cells; 100 nM): 99.4% | Fold change in vivo, ADRB1 ([1]; ADRB1, 0.025% in diet for 35 days): −2 fold | Fold change in vivo, ANGPTL4 ([1]; ANGPTL4, 0.025% in diet for 35 days): 2 fold | Fold change in vivo, BMP2 ([1]; BMP2, 0.025% in diet for 35 days): 3.8 fold | Fold change in vivo, HR ([1]; HR, 0.025% in diet for 35 days): 1.5 fold | Fold change in vivo, IL1B ([1]; IL1B, 0.025% in diet for 35 days): 5.6 fold | Fold change in vivo, ITGA5 ([1]; ITGA5, 0.025% in diet for 35 days): 1.9 fold | Fold change in vivo, LMAN1 ([1]; LMAN1, 0.025% in diet for 35 days): −4.3 fold | Fold change in vivo, MMP14 ([1]; MMP14, 0.025% in diet for 35 days): 2.5 fold | Fold change in vivo, RhoB ([1]; RhoB, 0.025% in diet for 35 days): 2 fold | activation of PPARγ (luciferase activity) (PPARγ): specifically activates PPARγ | RhoB polypeptide in tumors (Western blot) ([2]; ATC tumors from mice, 4 weeks of 0.025% in diet): elevated | RhoB polypeptide expression in tumors [2, 3]: elevated | cyclin E levels in tumors [2, 3]: down-regulated | p21WAF1/CIP1 polypeptide expression in tumors [2, 3]: elevated
